These results are taken from patent publication CN111743889A, “赤麻木脂素的新用途” (Shanghai Institute of Materia Medica of CAS, priority 2019, dated 2020).

Type in all cases: cell-based
In assay [1] the test system is STAT3 transcription factor [STAT3转录因子]. Kind of assay: STAT3 luciferase reporter gene assay (IL-6 induced). Particulars: HepG2 cells stably transfected with reporter; IL-6 10 ng/ml induced; compound 1-40 μM, added 1 h before stimulus; read 5 h after.
For assay [2], the system named is STAT1 transcription factor [STAT1转录因子]. Description: STAT1 luciferase reporter gene assay (IFN-γ induced). To be noted: HepG2 cells stably transfected with reporter; IFN-γ 10 ng/ml induced; compound 1-40 μM, added 1 h before stimulus; read 5 h after.
For a further assay, the target named is T1, IGF1R (Homo sapiens, UniProt P08069).
T1 construct: 将细胞以每孔15万的量接种在24孔板内; endogenous in cells
Description: Western blot, IGF1R phosphorylation. Particulars: same concentrations (1, 5, 10, 20 μM), 1 h.

In the next assay the target is T2, JAK1 (Homo sapiens, UniProt P23458).
T2 construct: 将细胞以每孔15万的量接种在24孔板内; endogenous in cells; HepG2 and HEK293 are the only lines named
Kind of assay: Western blot, JAK1 phosphorylation. To be noted: IL-6, IFN-γ and IFN-α induced, 10 min; compound 1, 5, 10, 20 μM, 1 h.

Assay [3] deals with NF-κB signalling pathway [NF-κB信号通路]. Description: NF-κB luciferase reporter gene assay (TNF-α induced). Particulars: HEK293 cells with reporter; TNF-α 10 ng/ml induced; compound 1-40 μM, added 1 h before stimulus; read 5 h after.
The test system of the next assay is IκBα. Kind of assay: Western blot, IκBα phosphorylation. To be noted: TNF-α induced, 10 min; compound 1, 5, 10, 20 μM, 1 h.
The next assay deals with T3, PDGFRα (Homo sapiens, UniProt P16234).
T3 construct: 将细胞以每孔15万的量接种在24孔板内; endogenous in cells
Kind of assay: Western blot, PDGFRα phosphorylation. To be noted: same concentrations (1, 5, 10, 20 μM), 1 h.

In another assay the target is T4, TYK2 (Homo sapiens, UniProt P29597).
T4 construct: 将细胞以每孔15万的量接种在24孔板内; endogenous in cells; HepG2 and HEK293 are the only lines named
Kind of assay: Western blot, TYK2 phosphorylation. To be noted: IL-6, IFN-γ and IFN-α induced, 10 min; compound 1, 5, 10, 20 μM, 1 h.

Another assay deals with T5, JAK2 (Homo sapiens, UniProt O60674).
T5 construct: 将细胞以每孔15万的量接种在24孔板内; endogenous in cells; HepG2 and HEK293 are the only lines named
Kind of assay: Western blot, JAK2 phosphorylation. To be noted: IL-6, IFN-γ and IFN-α induced, 10 min; compound 1, 5, 10, 20 μM, 1 h.

In a further assay the target is T6, EGFR (Homo sapiens, UniProt P00533).
T6 construct: 将细胞以每孔15万的量接种在24孔板内; endogenous in cells
Kind of assay: Western blot, EGFR phosphorylation. Particulars: same concentrations (1, 5, 10, 20 μM), 1 h.

In the next assay the test system is IKK-α/β. Kind of assay: Western blot, IKK-α/β phosphorylation. Particulars: TNF-α induced, 10 min; compound 1, 5, 10, 20 μM, 1 h.
A further assay has as its system STAT1. Kind of assay: Western blot, STAT1 phosphorylation. Particulars: IFN-γ induced, 10 min; compound 1, 5, 10, 20 μM, 1 h.
In the next assay the test system is STAT3. Description: Western blot, STAT3 phosphorylation. Particulars: IL-6 induced, 10 min; compound 1, 5, 10, 20 μM, 1 h.
The target of a further assay is T7, PDGFRβ (Homo sapiens, UniProt P09619).
T7 construct: 将细胞以每孔15万的量接种在24孔板内; endogenous in cells
Description: Western blot, PDGFRβ phosphorylation. To be noted: same concentrations (1, 5, 10, 20 μM), 1 h.

T4 sequence (P29597 whole entry): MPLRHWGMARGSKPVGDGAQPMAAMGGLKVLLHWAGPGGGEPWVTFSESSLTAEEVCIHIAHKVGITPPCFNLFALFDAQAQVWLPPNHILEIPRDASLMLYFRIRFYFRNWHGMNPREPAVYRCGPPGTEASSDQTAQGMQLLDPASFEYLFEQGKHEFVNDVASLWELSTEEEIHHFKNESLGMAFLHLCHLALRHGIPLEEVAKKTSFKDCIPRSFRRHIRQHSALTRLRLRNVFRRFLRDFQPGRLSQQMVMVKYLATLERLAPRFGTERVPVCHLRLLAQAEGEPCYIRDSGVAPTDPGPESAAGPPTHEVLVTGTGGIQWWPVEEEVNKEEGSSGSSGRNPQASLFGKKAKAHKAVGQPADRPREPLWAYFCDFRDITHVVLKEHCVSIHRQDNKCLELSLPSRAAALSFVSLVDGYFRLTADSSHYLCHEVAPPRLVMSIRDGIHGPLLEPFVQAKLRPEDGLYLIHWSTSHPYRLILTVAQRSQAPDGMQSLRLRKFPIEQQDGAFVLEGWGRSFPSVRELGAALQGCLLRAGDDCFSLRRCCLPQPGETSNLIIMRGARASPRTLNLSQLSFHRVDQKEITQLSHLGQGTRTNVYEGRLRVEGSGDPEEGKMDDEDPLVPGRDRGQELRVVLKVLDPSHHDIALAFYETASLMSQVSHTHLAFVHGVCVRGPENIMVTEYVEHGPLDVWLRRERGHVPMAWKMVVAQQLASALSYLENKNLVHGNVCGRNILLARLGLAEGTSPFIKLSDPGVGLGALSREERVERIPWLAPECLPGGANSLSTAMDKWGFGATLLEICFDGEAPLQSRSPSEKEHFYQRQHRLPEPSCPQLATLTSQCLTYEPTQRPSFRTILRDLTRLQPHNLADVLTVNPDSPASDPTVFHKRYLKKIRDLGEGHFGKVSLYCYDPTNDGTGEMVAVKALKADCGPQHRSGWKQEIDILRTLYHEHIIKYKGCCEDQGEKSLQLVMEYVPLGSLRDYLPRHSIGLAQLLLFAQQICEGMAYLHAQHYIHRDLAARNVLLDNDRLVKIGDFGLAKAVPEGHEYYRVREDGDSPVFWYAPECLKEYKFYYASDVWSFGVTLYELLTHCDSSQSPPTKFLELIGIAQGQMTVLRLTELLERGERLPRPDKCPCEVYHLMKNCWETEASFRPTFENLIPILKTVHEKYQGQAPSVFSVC
T2 sequence (P23458 whole entry): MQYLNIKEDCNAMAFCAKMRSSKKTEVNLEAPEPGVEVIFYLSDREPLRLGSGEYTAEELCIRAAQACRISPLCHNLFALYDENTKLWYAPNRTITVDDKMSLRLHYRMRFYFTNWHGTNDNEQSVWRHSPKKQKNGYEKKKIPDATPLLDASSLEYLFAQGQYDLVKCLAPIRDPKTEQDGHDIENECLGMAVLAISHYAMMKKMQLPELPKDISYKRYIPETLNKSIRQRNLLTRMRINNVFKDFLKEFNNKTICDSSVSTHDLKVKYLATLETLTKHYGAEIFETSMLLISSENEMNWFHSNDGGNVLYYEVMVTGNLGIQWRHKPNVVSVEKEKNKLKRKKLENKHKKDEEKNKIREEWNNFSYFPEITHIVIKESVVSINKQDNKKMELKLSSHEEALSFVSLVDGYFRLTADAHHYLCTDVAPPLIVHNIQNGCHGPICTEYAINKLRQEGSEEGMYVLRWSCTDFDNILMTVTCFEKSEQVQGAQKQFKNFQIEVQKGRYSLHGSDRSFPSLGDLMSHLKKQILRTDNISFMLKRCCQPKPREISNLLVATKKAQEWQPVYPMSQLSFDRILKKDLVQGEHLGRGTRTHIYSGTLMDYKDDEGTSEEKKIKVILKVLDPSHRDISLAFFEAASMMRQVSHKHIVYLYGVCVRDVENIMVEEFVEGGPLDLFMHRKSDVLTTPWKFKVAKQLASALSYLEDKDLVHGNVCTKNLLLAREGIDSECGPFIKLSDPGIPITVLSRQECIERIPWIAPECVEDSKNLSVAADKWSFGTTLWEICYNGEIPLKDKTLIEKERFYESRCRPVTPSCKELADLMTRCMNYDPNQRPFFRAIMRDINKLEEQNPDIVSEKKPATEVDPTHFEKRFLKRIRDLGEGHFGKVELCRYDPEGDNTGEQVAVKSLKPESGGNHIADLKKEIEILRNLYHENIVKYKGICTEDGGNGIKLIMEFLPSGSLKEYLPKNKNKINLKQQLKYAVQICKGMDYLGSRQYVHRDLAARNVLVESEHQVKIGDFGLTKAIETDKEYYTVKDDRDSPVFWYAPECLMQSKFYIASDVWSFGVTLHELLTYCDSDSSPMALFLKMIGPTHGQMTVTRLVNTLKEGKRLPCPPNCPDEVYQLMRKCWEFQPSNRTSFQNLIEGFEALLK
T1 sequence (P08069 31-1367): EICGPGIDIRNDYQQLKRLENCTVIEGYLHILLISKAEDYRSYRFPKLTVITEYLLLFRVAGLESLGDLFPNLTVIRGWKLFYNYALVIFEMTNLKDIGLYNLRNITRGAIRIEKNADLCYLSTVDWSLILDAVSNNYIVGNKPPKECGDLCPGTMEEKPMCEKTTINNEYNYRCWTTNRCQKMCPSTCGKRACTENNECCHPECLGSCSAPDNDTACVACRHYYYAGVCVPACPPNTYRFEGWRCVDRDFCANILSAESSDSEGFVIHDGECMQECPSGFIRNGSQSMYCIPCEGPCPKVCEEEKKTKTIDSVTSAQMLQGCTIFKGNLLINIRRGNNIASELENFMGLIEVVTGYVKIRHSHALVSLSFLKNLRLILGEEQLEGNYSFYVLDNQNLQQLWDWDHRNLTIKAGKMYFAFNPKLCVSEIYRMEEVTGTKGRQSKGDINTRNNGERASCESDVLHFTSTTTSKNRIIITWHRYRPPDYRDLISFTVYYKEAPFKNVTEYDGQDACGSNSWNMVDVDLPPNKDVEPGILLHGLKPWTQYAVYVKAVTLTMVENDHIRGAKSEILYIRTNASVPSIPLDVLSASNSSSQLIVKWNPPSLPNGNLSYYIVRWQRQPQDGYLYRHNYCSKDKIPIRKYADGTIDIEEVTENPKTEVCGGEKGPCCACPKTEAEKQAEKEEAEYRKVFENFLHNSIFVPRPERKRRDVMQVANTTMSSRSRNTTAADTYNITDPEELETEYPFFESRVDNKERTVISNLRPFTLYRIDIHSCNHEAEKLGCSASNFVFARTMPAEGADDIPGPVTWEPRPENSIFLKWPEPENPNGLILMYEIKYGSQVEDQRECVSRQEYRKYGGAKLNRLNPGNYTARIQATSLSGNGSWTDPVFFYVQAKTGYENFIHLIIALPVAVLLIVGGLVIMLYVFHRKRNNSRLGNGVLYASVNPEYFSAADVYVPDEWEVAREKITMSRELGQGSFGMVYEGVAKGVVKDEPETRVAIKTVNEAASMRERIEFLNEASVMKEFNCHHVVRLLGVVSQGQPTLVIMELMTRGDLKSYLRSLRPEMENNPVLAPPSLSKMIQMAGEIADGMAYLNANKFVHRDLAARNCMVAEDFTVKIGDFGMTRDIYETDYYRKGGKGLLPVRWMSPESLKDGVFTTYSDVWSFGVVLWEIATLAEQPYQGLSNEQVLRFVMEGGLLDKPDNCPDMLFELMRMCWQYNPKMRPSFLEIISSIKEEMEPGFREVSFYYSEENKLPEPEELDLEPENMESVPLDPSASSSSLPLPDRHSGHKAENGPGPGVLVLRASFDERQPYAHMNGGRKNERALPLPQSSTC
T6 sequence (P00533 25-1210): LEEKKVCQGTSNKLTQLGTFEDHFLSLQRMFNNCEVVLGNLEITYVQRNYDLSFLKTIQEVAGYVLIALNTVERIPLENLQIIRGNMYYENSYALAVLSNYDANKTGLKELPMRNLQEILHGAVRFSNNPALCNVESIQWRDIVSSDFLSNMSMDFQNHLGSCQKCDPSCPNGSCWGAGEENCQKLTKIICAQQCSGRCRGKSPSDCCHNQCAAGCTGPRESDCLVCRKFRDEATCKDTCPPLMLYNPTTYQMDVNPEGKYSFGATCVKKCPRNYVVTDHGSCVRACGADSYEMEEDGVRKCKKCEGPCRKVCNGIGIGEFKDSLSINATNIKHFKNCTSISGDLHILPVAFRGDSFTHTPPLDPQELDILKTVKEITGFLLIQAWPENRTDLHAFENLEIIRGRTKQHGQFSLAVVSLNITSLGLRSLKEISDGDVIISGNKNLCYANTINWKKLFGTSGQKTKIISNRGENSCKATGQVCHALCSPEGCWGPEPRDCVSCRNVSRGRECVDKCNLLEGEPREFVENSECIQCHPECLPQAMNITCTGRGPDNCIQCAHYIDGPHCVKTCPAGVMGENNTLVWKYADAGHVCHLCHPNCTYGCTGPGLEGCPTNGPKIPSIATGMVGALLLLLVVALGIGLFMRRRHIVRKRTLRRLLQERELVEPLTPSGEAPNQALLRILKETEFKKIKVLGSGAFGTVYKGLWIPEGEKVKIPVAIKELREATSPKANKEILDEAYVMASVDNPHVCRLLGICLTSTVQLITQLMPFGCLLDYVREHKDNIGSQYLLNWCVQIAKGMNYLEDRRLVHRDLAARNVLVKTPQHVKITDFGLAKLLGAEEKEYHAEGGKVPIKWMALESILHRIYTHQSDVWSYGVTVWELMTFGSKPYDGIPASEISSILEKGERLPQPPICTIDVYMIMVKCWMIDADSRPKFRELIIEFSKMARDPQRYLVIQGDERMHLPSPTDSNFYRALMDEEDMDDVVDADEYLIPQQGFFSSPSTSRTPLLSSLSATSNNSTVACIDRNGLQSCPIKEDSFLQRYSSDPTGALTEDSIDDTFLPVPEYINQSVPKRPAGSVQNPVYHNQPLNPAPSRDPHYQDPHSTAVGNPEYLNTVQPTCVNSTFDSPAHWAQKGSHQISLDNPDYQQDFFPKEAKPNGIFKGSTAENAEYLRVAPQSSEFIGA

As to `COc1cc(C=CC(=O)OCCCc2cc(OC)c3c(c2)C(COC(=O)C=Cc2ccc(O)c(OC)c2)C(c2ccc(O)c(OC)c2)O3)ccc1O` (centres unmarked) [赤麻木脂素, 3-(4-Hydroxy-3-methoxyphenyl)propenoic acid 3-[2,3-dihydro-2-(4-hydroxy-3-methoxyphenyl)-3-[[[3-(4-hydroxy-3-methoxyphenyl)-1-oxo-2-propenyl]oxy]methyl]-7-methoxybenzofuran-5-yl]propyl ester], the “inhibition of transcriptional activity of STAT3 transcription factor (luciferase)” value in assay [1] is recorded as “剂量依赖性的抑制”. Further, in assay [2], the “inhibition of transcriptional activity of STAT1 transcription factor (luciferase)” value is reported as “剂量依赖性的抑制”. Besides, the “effect on phosphorylation of other tyrosine kinases (IGF1R)” value on IGF1R was “没有抑制作用”. The “inhibition of JAK phosphorylation (p-JAK1)” value on JAK1 is “抑制”. Further, the “inhibition of NF-κB signalling pathway (NF-κB-dependent luciferase activity)” value in [3] is “浓度依赖性的抑制”. In addition, the “inhibition of IκBα phosphorylation” value with IκBα was “抑制”. On PDGFRα, the “effect on phosphorylation of other tyrosine kinases (PDGFRα)” value is recorded as “没有抑制作用”. For the same compound, the “inhibition of JAK phosphorylation (p-TYK2)” value at TYK2 was “抑制”. Besides, the “inhibition of JAK phosphorylation (p-JAK2)” value against JAK2 is given as “抑制”. For the same compound, the “effect on phosphorylation of other tyrosine kinases (EGFR)” value at EGFR is “没有抑制作用”. Further, the “inhibition of IKK-α/β phosphorylation” value in the assay on IKK-α/β is “抑制”. Further, the “inhibition of STAT1 phosphorylation” value with STAT1 is on record as “抑制”. Besides, the “inhibition of STAT3 phosphorylation” value in the assay on STAT3 is recorded as “抑制”. On PDGFRβ, the “effect on phosphorylation of other tyrosine kinases (PDGFRβ)” value is “没有抑制作用”.
